Source: publication PMC11739085, “A novel non-invasive murine model for rapidly testing drug activity via inhalation administration against Mycobacterium tuberculosis” (Frontiers in Pharmacology, 2025)
Several values for one entry are separate records, joined by “and”; a condition that tells them apart may be missing. Identical values can stand only once. Entries after “also recorded” stand apart in the source; their conditions may differ. Like-named read-outs stand apart in the source and are kept apart here.

Experiments:
[1] = Pharmacokinetics in plasma via inhalation; conditions: for duration plasma concentration exceeded in vitro MIC against M. tuberculosis / peak concentration in plasma / AUC(0-t) / AUC(0-inf) / Tmax: mice
[2] = design: method as in Grewal et al., 2018; Grosset et al., 1992; Lyons et al., 2013; conditions: mice, oral administration; ref Grewal et al., 2018; Grosset et al., 1992; Lyons et al., 2013; cited from earlier work
M. tuberculosis = conditions: stated without method or reference; cited from earlier work
[3] = test system: autoluminescent M. tuberculosis H37Rv (AlRv); assay type: in vivo, Mycobacterium tuberculosis
[4] = test system: autoluminescent M. tuberculosis H37Rv (AlRv); assay type: in vivo, Mycobacterium tuberculosis; remark: listed apart in the source
[5] = Pharmacokinetics in lung via inhalation; conditions: for duration lung concentration above in vitro MIC against M. tuberculosis: lung tissue, inhalation
in vivo [6] = conditions: mouse, inhaled or intranasal
in vivo [7] = conditions: mouse, inhaled or intranasal; remark: listed apart in the source
AlRv = test: Published inhalation administration method using a syringe-like device in mice infected with AlRv; assay type: in vivo, Mycobacterium tuberculosis; conditions: unpublished data
Description: To date, four primary research reports, encompassing three inhalation administration models, have explored the detection of anti-TB drug efficacy through airway administration ([Garcia-Contreras et al., 2007]; [Garcia-Contreras et al., 2010]; [Gonzalez-Juarrero et al., 2012]; [Verma et al., 2013]). Among these studies, only two have employed murine models for their investigations. Supplementary Table S1 presents a comprehensive comparison of the advantages and disadvantages of each report relative to our study. Compared to these existing inhalation administration model, our innovative method achieves several improvements. Firstly, it is cost-effective and user-friendly, employing mice instead of larger animals. Secondly, it eliminates the need for anesthesia in mice during administration, simplifying the instrument operation. We also endeavored to utilize a published inhalation administration method using a syringe-like device in mice infected with AlRv. However, we encountered significant challenges in administering drugs daily due to the development of swollen throats in the mice ([Gonzalez-Juarrero et al., 2012]). […] Thirdly, the results obtained are relatively objective and repeatable, thereby minimizing the influence of human factor. Fourthly, the same treatment group, consisting of six mice, is administrated daily and simultaneously. […]

[8] = inhalation, RIF 2, INH 0.5, EMB 10 mg/mL
[9] = single inhalation, RIF 2, INH 0.5, EMB 10 mg/mL
[10] = mouse, inhaled or intranasal, AUC0-t in plasma, inhalation, t = 4 h for INH and 24 h for RIF and EMB
[11] = mouse, inhaled or intranasal, AUC0-t, single inhalation 25 min, RIF 2, INH 0.5, EMB 10 mg/mL, t = 4 h for INH, 24 h for RIF and EMB
[12] = mouse, inhaled or intranasal, AUC0-∞ in plasma, inhalation
[13] = mouse, inhaled or intranasal, AUC0-∞, single inhalation 25 min, RIF 2, INH 0.5, EMB 10 mg/mL
[14] = mouse, inhaled or intranasal, time of peak concentration in plasma post-administration, single inhalation, RIF 2, INH 0.5, EMB 10 mg/mL, first sampling point 5 min
[15] = […], RIF 2, INH 2, EMB 10 mg/mL, lungs D18
[16] = mice, RIF 2, INH 0.5, EMB 10 mg/mL
[17] = lung, mice, single inhalation, RIF 2, INH 0.5, EMB 10 mg/mL
[18] = mouse, lung, inhaled or intranasal, AUC0-t, mice, single inhalation 25 min, RIF 2, INH 0.5, EMB 10 mg/mL
[19] = mouse, lung, inhaled or intranasal, Tmax, mice, single inhalation 25 min, RIF 2, INH 0.5, EMB 10 mg/mL
[20] = mouse, lung, inhaled or intranasal, time of peak concentration in lung post-administration, mice, single inhalation, RIF 2, INH 0.5, EMB 10 mg/mL

Row | Compound | duration plasma concentration exceeded in vitro MIC against M. tuberculosis [1, 8] | peak concentration in plasma [1, 9] | AUC(0-t) [1, 10] | AUC(0-t) [1, 11] | AUC(0-inf) [1, 12] | AUC(0-inf) [1, 13] | Tmax [1, 14] | time of highest plasma concentration post-administration [2] | in vitro minimum inhibitory concentration (MIC) (M. tuberculosis) | log10CFUs/lung difference to solvent group ([3]; in vivo) | lowest inhaled concentration showing anti-M. tuberculosis activity in vivo ([3]; in vivo) | lung CFUs compared with BT group ([3]; in vivo) | lung RLUs compared with BT group ([3]; in vivo) | lung RLUs compared with solvent group ([3]; in vivo) | lung CFUs compared with BT group [4, 15] | lung RLUs compared with BT group [4, 15] | duration lung concentration above in vitro MIC against M. tuberculosis [5, 16] | peak concentration in lung [5, 17] | AUC(0-t) [5, 18] | Tmax [5, 19] | further results
1 | CC[C@@H](CO)NCCN[C@@H](CC)CO [EMB, ethambutol] | ~14 h | 28.64 ± 16.80 µg/mL and 28.64 ± 16.8 µg/mL | 103 µg·h/mL | 103 µg·h/mL | 103 µg·h/mL | 103 µg·h/mL | ≤ 5 min | 1.33 h | 2.00 mg/L | exceeding 1.5 log10CFUs/lung | 0.625 mg/mL | nearly identical | equivalent | less significant differences | almost similar | nearly identical | ~10 h | 10.94 ± 1.63 µg/g | 47.3 µg·h/mL | 4.8 min | half-life ([1]; mouse, inhaled or intranasal): 170 min; Tmax ([1]; mouse, inhaled or intranasal, Tmax, single inhalation 25 min, RIF 2, INH 0.5, EMB 10 mg/mL): 4.8 min; live RLUs compared with solvent group ([3]; in vivo): significantly lower; lung CFUs compared with solvent control ([3]; in vivo): significantly reduced; half-life ([5]; mouse, lung, inhaled or intranasal): 274 min; AUC(0-inf) ([5]; mouse, lung, inhaled or intranasal, AUC0-∞, mice, single inhalation 25 min, RIF 2, INH 0.5, EMB 10 mg/mL): 48.7 µg·h/mL; Tmax [5, 20]: ≤ 5 min
2 | CO[C@H]1/C=C/O[C@@]2(C)Oc3c(C)c(O)c4c(O)c(c(/C=N/N5CCN(C)CC5)c(O)c4c3C2=O)NC(=O)/C(C)=C\C=C\[C@H](C)[C@H](O)[C@@H](C)[C@@H](O)[C@@H](C)[C@H](OC(C)=O)[C@@H]1C [RIF, rifampicin] | approximately 24 h | – | – | – | – | – | – | – | 0.06 mg/L | exceeding 1.5 log10CFUs/lung | 0.5 mg/mL | – | – | comparable | – | – | approximately 24 h | – | – | – | Tmax (in vivo [6]; Tmax): 4.8 min; Tmax (in vivo [6]; time of peak concentration in lung post-administration): 5 min; AUC(0-t) (in vivo [7]; AUC0-t in plasma): 19 µg·h/mL; AUC(0-inf) (in vivo [7]; AUC0-∞ in plasma): 21 µg·h/mL; Tmax (in vivo [7]; Tmax): 4.8 min; Tmax (in vivo [7]; time of peak concentration in plasma post-administration): 5 min; bactericidal activity by lung suspension RLU and CFU ([3]; in vivo): failed to demonstrate bactericidal activity; log10RLUs/lung difference to solvent group ([3]; in vivo): exceeding 1.5 log10RLUs/lung; lung CFUs compared with solvent group ([3]; in vivo): slightly significantly lower; also recorded: approximately comparable; lung CFUs compared with BT group ([4]; in vivo): higher
3 | NNC(=O)c1ccncc1 [INH, isoniazid] | ~3 h | 2.66 ± 0.29 µg/mL | 1.57 µg·h/mL | 1.57 µg·h/mL | 1.79 µg·h/mL | 1.79 µg·h/mL | ≤ 5 min | 0.25 h | 0.13 mg/L | exceeding 1.5 log10CFUs/lung | 0.5 mg/mL | lower | comparable | similar | lower | slightly lower | ~0.5 h | 2.52 ± 0.81 µg/g | 0.337 µg·h/mL | 15 min | Tmax (in vivo [7]): 4.8 min; RLUs compared with untreated control and the same mice the day before administration (AlRv): reduced RLUs; colonies on plates of lung suspension ([3]; […], only a fraction of the lung suspension plated): no colonies were observed; log10RLUs/lung difference to solvent group ([3]; in vivo): exceeding 1.5 log10RLUs/lung; concentration in the lungs 30 min post-administration ([5]; lung, mice, inhalation 0.5 mg/mL, 30 min post-administration): nearly undetectable; also recorded: near-zero; AUC(0-t) ([5]; mouse, lung, inhaled or intranasal, 0.5 mg/mL, AUC0-t in the lungs, mice, inhalation 0.5 mg/mL): 0.34 µg·h/mL; Tmax [5, 20]: ≤ 15 min
